# Source: ChEMBL document CHEMBL1201862, “PubChem BioAssay data set” (2004)
#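 Briefly, cells in 96-well plates were exposed to five compound concentrations for 48 h, and endpoints were estimated by linear interpolation. At the GI50, growth is halved.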 The source made the active and inactive calls. Rule as the data show it: active = GI50 up to about 1.1 µM and inactive = higher.
# Tests used:
# Test in all cases: DTP human tumour cell line panel, 48 h
# DMS-273 = system: DMS-273
# HOP-18 = system: HOP-18
# LXFL 529 = system: LXFL 529
# RXF 631 = system: RXF 631
# SNB-78 = system: SNB-78
# DLD-1 = system: DLD-1
# DMS-114 = system: DMS-114
# M19-MEL = system: M19-MEL
# XF498 = system: XF498
SMILES,GI50 (DMS-273),GI50 (HOP-18),GI50 (LXFL 529),GI50 (RXF 631),GI50 (SNB-78),GI50 (DLD-1),GI50 (DMS-114),GI50 (M19-MEL),GI50 (XF498)
COC(=O)CCC(=O)C(CC(=O)OC)C(=O)CCC(=O)NCCc1ccccc1 (centres undefined),> 100 µM (inactive),> 100 µM (inactive),> 100 µM (inactive),> 100 µM (inactive),> 100 µM (inactive),–,–,–,–
CSC(C1c2ccccc2N(C)C2=NC(=O)N(C)C(=O)C21Cl)S(=O)(=O)c1ccc(C)cc1 (centres undefined),27.3 µM (inactive),83.2 µM (inactive),22.2 µM (inactive),39.6 µM (inactive),46.9 µM (inactive),40.9 µM (inactive),49.1 µM (inactive),33.4 µM (inactive),> 100 µM (inactive)
O=c1c2cc(Br)cc(Br)c2nc(CCCl)n1-c1ccc(O)c([N+](=O)[O-])c1,21.5 µM (inactive),16.7 µM (inactive),16.1 µM (inactive),–,32.4 µM (inactive),18.9 µM (inactive),19.1 µM (inactive),15.9 µM (inactive),–
C/C(=N/NS(=O)(=O)c1ccc(C)cc1)c1cccc[n+]1[O-],> 100 µM (inactive),> 100 µM (inactive),> 100 µM (inactive),> 100 µM (inactive),> 100 µM (inactive),> 100 µM (inactive),> 100 µM (inactive),> 100 µM (inactive),> 100 µM (inactive)
C/C(CC(=O)CCCC(=O)Nc1ccc(Cl)cc1Cl)=N/NC(=O)CC#N,> 100 µM (inactive),> 100 µM (inactive),> 100 µM (inactive),> 100 µM (inactive),> 100 µM (inactive),> 100 µM (inactive),> 100 µM (inactive),> 100 µM (inactive),> 100 µM (inactive)
O=C(O)c1ccc2c(c1)C(=O)N(c1ccc(S(=O)(=O)c3ccc(N4C(=O)c5ccc(C(=O)O)cc5C4=O)cc3)cc1)C2=O,> 100 µM (inactive),–,> 100 µM (inactive),–,> 100 µM (inactive),–,> 100 µM (inactive),> 100 µM (inactive),> 100 µM (inactive)
OC12c3ccccc3C1(N1CCOCC1)CCCCC21OCCCO1 (centres undefined),> 100 µM (inactive),> 100 µM (inactive),> 100 µM (inactive),–,> 100 µM (inactive),> 100 µM (inactive),> 100 µM (inactive),–,–
CCCCCCCCCCCc1nnc(N)o1,> 100 µM (inactive),–,> 100 µM (inactive),82 µM (inactive),> 100 µM (inactive),> 100 µM (inactive),–,> 100 µM (inactive),> 100 µM (inactive)
COc1cc(C(=O)C/C(CCC(=O)Nc2ccccc2[N+](=O)[O-])=N\NC(=O)C(N)=O)ccc1O,> 100 µM (inactive),> 100 µM (inactive),> 100 µM (inactive),> 100 µM (inactive),> 100 µM (inactive),> 100 µM (inactive),> 100 µM (inactive),> 100 µM (inactive),–
CC1CC#CCOC(=O)CCCC1=O (centres undefined),> 100 µM (inactive),> 100 µM (inactive),> 100 µM (inactive),–,> 100 µM (inactive),> 100 µM (inactive),> 100 µM (inactive),> 100 µM (inactive),> 100 µM (inactive)
CCn1c(=O)nc2n(-c3ccc(SC)cc3)c3ccccc3nc-2c1=O,71.1 µM (inactive),> 100 µM (inactive),> 100 µM (inactive),> 100 µM (inactive),> 100 µM (inactive),> 100 µM (inactive),69.7 µM (inactive),30.7 µM (inactive),–
C[N+](C)=c1[nH]c2ccccc2[nH]1,> 100 µM (inactive),> 100 µM (inactive),> 100 µM (inactive),–,–,> 100 µM (inactive),> 100 µM (inactive),> 100 µM (inactive),–
COc1cc2ccnc(-c3c4ccccc4c(N)c4c(OC)c(OC)ccc34)c2cc1OC,1.53 µM (inactive),–,3.6 µM (inactive),–,3.66 µM (inactive),3.04 µM (inactive),2.59 µM (inactive),3.87 µM (inactive),2.64 µM (inactive)
O=P1(c2ccccc2)CCCCC1,> 100 µM (inactive),> 100 µM (inactive),> 100 µM (inactive),–,> 100 µM (inactive),> 100 µM (inactive),> 100 µM (inactive),–,< 0.01 µM (active)
CC(=O)OCC1OC(n2cccnc2=O)C(OC(C)=O)C1OC(C)=O (centres undefined),> 100 µM (inactive),> 100 µM (inactive),> 100 µM (inactive),> 100 µM (inactive),> 100 µM (inactive),> 100 µM (inactive),> 100 µM (inactive),> 100 µM (inactive),> 100 µM (inactive)
CC(=O)OC1(C)C(=O)OC1(C)C(C)=O (centres undefined),> 100 µM (inactive),> 100 µM (inactive),> 100 µM (inactive),> 100 µM (inactive),> 100 µM (inactive),> 100 µM (inactive),> 100 µM (inactive),> 100 µM (inactive),–
Cc1cccc(O)c(=O)c1,7.41 µM (inactive),> 100 µM (inactive),29.9 µM (inactive),–,> 100 µM (inactive),24.1 µM (inactive),5.92 µM (inactive),43.5 µM (inactive),–
C(=C1\CCC/C(=C/c2ccccc2)C1=NNc1ccccc1)/c1ccccc1,> 100 µM (inactive),> 100 µM (inactive),> 100 µM (inactive),> 100 µM (inactive),> 100 µM (inactive),> 100 µM (inactive),> 100 µM (inactive),> 100 µM (inactive),–
COc1cccc(C(=O)C2C(=O)N(C)CCc3ccccc32)c1OC (centres undefined),> 100 µM (inactive),> 100 µM (inactive),> 100 µM (inactive),> 100 µM (inactive),–,> 100 µM (inactive),> 100 µM (inactive),> 100 µM (inactive),> 100 µM (inactive)
Cc1ccc2nc3c(Cl)cc(=O)cc-3sc2c1,19.7 µM (inactive),2.96 µM (inactive),18.7 µM (inactive),30.8 µM (inactive),39.2 µM (inactive),> 10 µM (inactive),20.4 µM (inactive),19.7 µM (inactive),–
CCOC(=O)c1ccc(-n2c(SCC)nc3sc(C)c(C)c3c2=O)cc1,> 100 µM (inactive),> 100 µM (inactive),–,–,> 100 µM (inactive),> 100 µM (inactive),> 100 µM (inactive),–,> 100 µM (inactive)
COc1cc(C2c3cc4c(cc3[C@@H](Nc3ccc(N(C)C)cc3)[C@H]3COC(=O)C23)OCO4)cc(OC)c1O (some centres undefined),0.116 µM (active),1.85 µM (inactive),2.15 µM (inactive),–,4.31 µM (inactive),1.73 µM (inactive),0.42 µM (active),0.839 µM (active),0.687 µM (active)
